Test [1] addresses T1, MAGL (Homo sapiens, UniProt Q99685).
T1 sequence (Q99685 1-303): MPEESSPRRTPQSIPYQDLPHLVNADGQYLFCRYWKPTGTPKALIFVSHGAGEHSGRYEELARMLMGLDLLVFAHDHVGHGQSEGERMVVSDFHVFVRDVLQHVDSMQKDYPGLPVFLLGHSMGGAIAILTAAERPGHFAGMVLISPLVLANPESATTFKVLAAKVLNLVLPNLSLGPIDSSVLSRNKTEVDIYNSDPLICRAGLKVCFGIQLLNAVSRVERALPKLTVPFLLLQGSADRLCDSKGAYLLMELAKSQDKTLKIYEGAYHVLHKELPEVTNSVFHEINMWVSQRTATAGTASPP
Put plainly: In vitro competitive activity-based protein profiling, MAGL, human. The settings on record: for inhibition at 1 µM: read-out: MAGL % inh. 1 μM (human).
Protocol: (§1) Biological Evaluation In Vitro Competitive Activity-Based Protein Profiling.
(§2) Proteomes (mouse brain membrane fraction for mouse assays; human prefrontal cortex membrane fractions for human assays) (50 mL, 1.0 mg/mL total protein concentration) were preincubated with varying concentrations of inhibitors at 37° C. After 30 min, FP-Rh (1.0 mL, 50 mM in DMSO) was added and the mixture was incubated for another 30 min at 37° C. Reactions were quenched with SDS loading buffer (15 μL—4λ) and run on SDS-PAGE.

Test [2] deals with T2, MAGL (Mus musculus, UniProt O35678).
T2 sequence (O35678 1-303): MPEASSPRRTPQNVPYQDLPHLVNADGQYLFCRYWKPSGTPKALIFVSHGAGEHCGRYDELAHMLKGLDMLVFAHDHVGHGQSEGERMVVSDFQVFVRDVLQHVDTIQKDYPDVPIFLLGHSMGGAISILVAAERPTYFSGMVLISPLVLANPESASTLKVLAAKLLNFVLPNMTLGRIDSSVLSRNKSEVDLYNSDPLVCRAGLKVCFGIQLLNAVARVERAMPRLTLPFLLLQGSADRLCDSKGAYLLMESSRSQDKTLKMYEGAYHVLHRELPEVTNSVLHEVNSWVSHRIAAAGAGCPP
The test can be described thus: In vitro competitive activity-based protein profiling, MAGL, mouse. Particulars: read-out: MAGL % inh. 1 μM (mouse).

The target in test [3] is T3, FAAH (Homo sapiens, UniProt O00519).
T3 sequence (O00519 1-579): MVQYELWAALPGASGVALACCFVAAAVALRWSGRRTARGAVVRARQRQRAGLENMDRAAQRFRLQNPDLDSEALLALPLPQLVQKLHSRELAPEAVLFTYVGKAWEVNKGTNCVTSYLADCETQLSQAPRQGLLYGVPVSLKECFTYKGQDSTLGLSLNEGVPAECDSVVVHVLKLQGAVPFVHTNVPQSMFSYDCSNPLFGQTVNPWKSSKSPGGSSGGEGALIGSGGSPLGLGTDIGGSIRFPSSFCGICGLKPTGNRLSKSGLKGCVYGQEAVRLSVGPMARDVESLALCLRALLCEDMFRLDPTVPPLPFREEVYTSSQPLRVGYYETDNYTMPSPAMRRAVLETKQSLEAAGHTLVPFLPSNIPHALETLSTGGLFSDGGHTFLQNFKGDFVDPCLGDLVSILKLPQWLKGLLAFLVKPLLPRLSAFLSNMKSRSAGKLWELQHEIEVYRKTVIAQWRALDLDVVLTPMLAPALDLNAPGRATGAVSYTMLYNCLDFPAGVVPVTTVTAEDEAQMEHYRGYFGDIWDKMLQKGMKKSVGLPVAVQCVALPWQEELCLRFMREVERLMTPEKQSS
Put plainly: In vitro competitive activity-based protein profiling, FAAH, human. The settings on record: for inhibition at 1 µM: read-out: FAAH % inh. 1 μM (human).

Test [4] deals with T4, FAAH (Mus musculus, UniProt O08914).
T4 sequence (O08914 1-579): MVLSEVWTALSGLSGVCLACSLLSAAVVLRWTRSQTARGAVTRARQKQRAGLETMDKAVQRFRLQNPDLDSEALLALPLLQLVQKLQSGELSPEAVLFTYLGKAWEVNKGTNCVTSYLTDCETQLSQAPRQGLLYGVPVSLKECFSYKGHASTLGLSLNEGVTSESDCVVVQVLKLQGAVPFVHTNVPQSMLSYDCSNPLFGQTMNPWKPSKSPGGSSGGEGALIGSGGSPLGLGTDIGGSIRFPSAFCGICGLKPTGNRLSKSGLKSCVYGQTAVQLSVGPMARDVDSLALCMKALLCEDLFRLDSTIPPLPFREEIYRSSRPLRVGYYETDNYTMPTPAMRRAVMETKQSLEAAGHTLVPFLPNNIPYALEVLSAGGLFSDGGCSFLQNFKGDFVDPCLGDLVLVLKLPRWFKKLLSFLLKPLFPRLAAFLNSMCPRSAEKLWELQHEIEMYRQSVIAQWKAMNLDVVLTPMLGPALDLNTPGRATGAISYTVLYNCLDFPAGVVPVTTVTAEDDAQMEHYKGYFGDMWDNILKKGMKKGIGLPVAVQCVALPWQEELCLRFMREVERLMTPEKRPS
The test can be described thus: In vitro competitive activity-based protein profiling, FAAH, mouse. The settings on record: read-out: FAAH % inh. 1 μM (mouse).
Protocol: as §1, §2

As for `Cc1cc(-c2ccccc2)ccc1CN1CCN(C(=O)n2ccc(C(=O)O)n2)CC1` [Example 16, 1-(4-((3-Methyl-[1,1′-biphenyl]-4-yl)methyl)piperazine-1-carbonyl)-1H-pyrazole-3-carboxylic Acid], the inhibition at 1 µM on MAGL [1] is > 75%; on MAGL [2], > 75%; at FAAH [3], 0 to 25%; at FAAH [4], 50 to 75%. For the same molecule, the IC50 at FAAH [3] lay in the range of 1000 to 10000 nM.

As for `Cc1ccc(CN2CCC3(CCN(C(=O)n4ccc(C(=O)O)n4)CC3)C2)cc1Cl` [Example 154, 1-(2-(3-chloro-4-methylbenzyl)-2,8-diazaspiro[4.5]decane-8-carbonyl)-1H-pyrazole-3-carboxylic acid], the inhibition at 1 µM is > 75% on MAGL [1], > 75% on MAGL [2], 0 to 25% on FAAH [3] and 0 to 25% at FAAH [4].

For `O=C(O)c1ccn(C(=O)N2CCC3(CCN(Cc4ccc(N5CCOCC5)cc4Cl)C3)CC2)n1` [Example 169, 1-(2-(2-chloro-4-morpholinobenzyl)-2,8-diazaspiro[4.5]decane-8-carbonyl)-1H-pyrazole-3-carboxylic acid], the inhibition at 1 µM was in the range of 25 to 50% at MAGL [1], 0 to 25% on MAGL [2], 0 to 25% on FAAH [3] and 0 to 25% on FAAH [4].

In the case of `NC(=O)c1ccn(C(=O)N2CCN(Cc3cnccc3C(F)(F)F)CC2)n1` [Example 175, 1-(4-((4-(trifluoromethyl)pyridin-3-yl)methyl)piperazine-1-carbonyl)-1H-pyrazole-3-carboxamide], the inhibition at 1 µM on MAGL [1], on MAGL [2], on FAAH [3] and at FAAH [4] was > 75% throughout. The same molecule yielded an IC50 at FAAH [3] of 100 to 1000 nM.

For the molecule `CN(Cc1cc(Cl)ccc1C(F)(F)F)C1CCN(C(=O)n2cc(Cl)c(C(=O)O)n2)CC1` [Example 112, 4-chloro-1-(4-((5-chloro-2-(trifluoromethyl)benzyl)(methyl)amino)piperidine-1-carbonyl)-1H-pyrazole-3-carboxylic acid], the inhibition at 1 µM on MAGL [1], at MAGL [2], at FAAH [3] and at FAAH [4] was > 75% in each case. In addition, the IC50 on FAAH [3] lay within 100 to 1000 nM.

As for `O=C(O)c1nn(C(=O)N2CC3CN(Cc4cc(Cl)ccc4Cl)CC3C2)cc1Cl` (stereo not shown) [Example 136, 4-chloro-1-(5-(2,5-dichlorobenzyl)octa-hydropyrrolo[3,4-c]pyrrole-2-carbonyl)-1H-pyrazole-3-carboxylic acid], the inhibition at 1 µM at MAGL [1], at MAGL [2], at FAAH [3] and at FAAH [4] was > 75% throughout. Also, the IC50 at FAAH [3] was 100 to 1000 nM.

As to `O=C(O)c1nn(C(=O)N2CC3CC(OCc4ccccc4Cl)CC3C2)cc1C(F)(F)F` (stereo not shown) [Example 143, 1-(5-((2-chlorobenzyl)oxy)octahydrocyclopenta [c]pyrrole-2-carbonyl)-4-(trifluoromethyl)-1H-pyrazole-3-carboxylic acid], the IC50 on MAGL [1] was 1000 to 10000 nM; on FAAH [3], 100 to 1000 nM. Moreover, the inhibition at 1 µM on MAGL [1] was 0 to 25%; at MAGL [2], 0 to 25%; on FAAH [3], > 75%; on FAAH [4], > 75%.

In the case of `NC(=O)c1ccn(C(=O)N2CCN(Cc3ccc(N4CCOCC4)cc3Cl)CC2)n1` [Example 165, 1-(4-(2-chloro-4-morpholinobenzyl)piperazine-1-carbonyl)-1H-pyrazole-3-carboxamide], the inhibition at 1 µM on MAGL [1] was > 75%; on MAGL [2], > 75%; on FAAH [3] it was > 75%; on FAAH [4], 50 to 75%.

For `O=C(O)c1ccn(C(=O)N2CCN(Cc3cccc(Oc4ccc(C(F)(F)F)cn4)c3)CC2)n1` [Example 61, 1-(4-(3-((5-(trifluoromethyl)pyridin-2-yl)oxy)benzyl)piper-azine-1-carbonyl)-1H-pyrazole-3-carboxylic acid], the inhibition at 1 µM on MAGL [1], on MAGL [2], on FAAH [3] and at FAAH [4] was > 75% throughout. The molecule also displayed an IC50 on FAAH [3] of 100 to 1000 nM.

Regarding `O=C(O)c1ccn(C(=O)N2CCC3(CCN(Cc4cc(Cl)cc(Cl)c4)C3)CC2)n1` [Example 162, 1-(2-(3,5-dichlorobenzyl)-2,8-diazaspiro[4.5]decane-8-carbonyl)-1H-pyrazole-3-carboxylic acid], the inhibition at 1 µM on MAGL [1] was > 75%; on MAGL [2], > 75%; on FAAH [3], > 75%; at FAAH [4] it was 25 to 50%. The IC50 at FAAH [3] was 100 to 1000 nM.

For the molecule `O=C(O)c1ccn(C(=O)N2CC3CN(Cc4ccc(Cl)c(N5CC6COCC6C5)c4)CC3C2)n1` (stereo not shown) [Example 166, 1-(5-(4-chloro-3-(tetrahydro-1H-furo[3,4-c]pyrrol-5(3H)-yl)benzyl)octahydropyrrolo[3,4-c]pyrrole-2-carbonyl)-1H-pyrazole-3-carboxylic acid], the inhibition at 1 µM at MAGL [1] is 50 to 75%; at MAGL [2] it was > 75%; at FAAH [3] it was 0 to 25%; at FAAH [4], 0 to 25%.

Consider `CN(Cc1cccc(C(F)(F)F)c1)C1CCN(C(=O)n2ccc(C(N)=O)n2)CC1` [Example 176, 1-(4-(methyl(3-(trifluoromethyl)benzyl)amino)piper-idine-1-carbonyl)-1H-pyrazole-3-carboxamide], for which the inhibition at 1 µM at MAGL [1], at MAGL [2], at FAAH [3] and at FAAH [4] was > 75% throughout.

On to `O=C(O)c1nn(C(=O)N2CCC3(CCCN3Cc3cc4ccc(C(F)(F)F)cc4s3)CC2)cc1C(F)(F)F` [Example 149, 4-(trifluoromethyl)-1-(1-((6-(trifluoromethyl)benzo[b]thiophen-2-yl)methyl)-1,8-diazaspiro[4.5]decane-8-carbonyl)-1H-pyrazole-3-carboxylic acid], for which the 50% inhibitory concentration (IC50) is 100 to 1000 nM at MAGL [1] and 1000 to 10000 nM on FAAH [3]. In addition, the inhibition at 1 µM was > 75% on MAGL [1], > 75% at MAGL [2], 25 to 50% at FAAH [3] and > 75% at FAAH [4].

Regarding `O=C(O)c1ccn(C(=O)N2CCC3(CCN(Cc4c(Cl)cccc4C(F)(F)F)C3)CC2)n1` [Example 74, 1-(2-(2-chloro-6-(trifluoromethyl)benzyl)-2,8-diazaspiro[4.5]decane-8-carbonyl)-1H-pyrazole-3-carboxylic acid], the inhibition at 1 µM at MAGL [1] was > 75%; at MAGL [2], > 75%; at FAAH [3], 0 to 25%; at FAAH [4], 0 to 25%.

Turning to `O=C(O)c1ccn(C(=O)N2CCC3(CCN(Cc4cc(Cl)cc(N5CCCC5)c4)C3)CC2)n1` [Example 44, 1-(2-(3-chloro-5-(pyrrolidin-1-yl)benzyl)-2,8-diazaspiro[4.5]decane-8-carbonyl)-1H-pyrazole-3-carboxylic acid], the inhibition at 1 µM at MAGL [1] was > 75%; at MAGL [2] it was > 75%; on FAAH [3] it was 0 to 25%; at FAAH [4], 0 to 25%.

(Values after patent US10266497B2 (ABIDE THERAPEUTICS, INC., priority 2017, dated 2019).)
